Measurements taken from publication PMC6290777, “Inhalation of the prodrug PI3K inhibitor CL27c improves lung function in asthma and fibrosis” (Nature Communications, 2018).

Experiments:
[1] = system: class I PI3K; conditions: purified proteins; cited from earlier work
[2] = system: murine bone marrow-derived macrophages; experiment: BMDM migration (Boyden chamber); format: cell-based, mouse; conditions: CXCL12 100 nM and C5a 50 nM; CL27c 1 and 10 µM
Description: For the migration assay, BMDMs (isolated as above described) were pretreated with Versene (Gibco™ #15040066) to detach them from the plate, washed, and incubated with free RPMI with different concentrations of CL27c for at least 2 h. Migration assay was subsequently performed by using a Boyden chamber toward C5a (50 nM, Sigma-Aldrich #SRP4895A) and CXCL12 (100 nM, Peprotech #250-20A) chemokines for 1 h at 37 °C, 5% CO2. Migrated BMDMs, attached to the polycarbonate of the Boyden chamber, were stained with Diff-Quik® reagent (MICROPTIC S.L. #DQ-ST) and counted at the microscope (5 fields/sample). The percentage of migrated cells was calculated by relating the number of the treated cells with the control vehicle (free RPMI).

[3] = Pharmacokinetics of a single dose of CL27c (i.v. or p.o.); format: in vivo, C57BL/6J mice; conditions: for Cmax: plasma; for Cmax / AUClast / AUCtot / CL (apparent total body clearance) / F (bioavailability) / Tmax / Vss / Vz / t½ (elimination half-life): label = analyte
Description: (§1) To define whether this prodrug was suitable for inhaled administration, CL27c was studied to evaluate selected ADME (absorption, distribution, metabolism, and excretion) and pharmacokinetic properties. First, stability of CL27c and CL27e was analyzed in mouse plasma (Supplementary Table 1) and in mouse, rat, and human liver microsomes in the presence of nicotinamide adenine dinucleotide phosphate (NADPH; Supplementary Table 2). Next, clearance of CL27c was analyzed in C57BL/6J mice after either intra-venous or oral administration. […] Clearance of CL27c and CL27e after oral administration could not be determined due to their low bioavailability (Supplementary Table 3). Next, pharmacokinetics after inhalation was studied in C57BL/6J mice after delivering an aerosolized micro-suspension of CL27c. As shown in Table 1 and Supplementary Fig. 1b, CL27c dose-dependently reached the lungs and its metabolite CL27e was detectable after inhalation of the highest dose. […] Therefore, the inhaled prodrug promotes local effects but prevents systemic absorption of pharmacologically relevant amounts of the active compound.
Supplementary Table 3. Pharmacokinetic parameters of a single dose of CL27c […]
I.V. (10 mg/kg) P.O. (50 mg/kg) […]
Legend:I.V,. Intravenous administration; P.O., […]; Cmax, Maximum (peak) plasma drug concentration; AUClast Area under the plasma concentration-time curve from time zero to time of last measurable concentration; AUCtot Area under the plasma-concentration time curve; t½, Elimination half -life: CL, Apparent total body clearance of CL27c from plasma; Vz, Apparent volume of distribution during terminal phase; Vss, Apparent volume of distribution at steady state;F, Bioavalability.

[4] = Pharmacokinetics of aerosolized CL27c (analysis of lung delivery); format: in vivo, C57BL/6J mice; conditions: for Lung concentration / Plasma concentration: label = analyte; for detectability in plasma after inhalation: aerosolized CL27c, traces only 1 h after the highest dose
Description: as §1
Mice were subjected to a 30-min aerosolized treatment with CL27c or vehicle (0.5% tyloxapol/saline solution)-containing solutions, where tyloxapol was added to improve distribution in the lungs. Mice were anesthetized at 1, 3, and 6 h after aerosolized treatment, the trachea was exposed and a 1.7-mm-outside-diameter polyethylene catheter was inserted and they were subsequently sacrificed. A syringe with a needle (27 G) pretreated with heparin was inserted into the vena cava above the renal veins to collect blood. After the collection of blood, lungs were subjected to bronchoalveolar lavage with three different 500 µl aliquots of acetonitrile. At the same time blood samples were centrifuged 180× g at 22 °C for 10 min, plasma supernatant was collected and treated with 1 volume of acetonitrile to precipitate proteins. Samples were then agitated on a high-speed vortex for 2 min and further mixed using a rotary shaker for 2 min. the precipitated proteins were then pelleted by centrifugation at 10,000× g for 10 min and the supernatant was transferred in a new tube. BALF and plasma extracts were subsequently subjected to Liquid chromatography-mass spectrometry.
A Nexera LC-30AD (Shimadzu, Milan, Italy) instrument equipped with a Luna C18 150 × 2.1 mm, 3 µm particle size column (Phenomenex, Milan, Italy) was used to carry out chromatography analysis. The eluents (VWR, Milan, Italy) were acetonitrile (A) and 0.1% formic acid (B) in the following gradient conditions: from 10 to 54% of solvent A in 21 min, up to 100% of A in 2 min and re-equilibration. The injection volume was 10 µL, the flow rate was […] and the column was maintained at the temperature of 40 °C. For the chromatographic separation, an octadecylsilica column was used. The employed mass analyzer was a Q-trap used in multiple reaction-monitoring (MRM) mode. With this technique, it was possible to detect and quantify simultaneously the drug and the metabolite with high selectivity and sensitivity. A QTrap-5500 (Sciex, Milan, Italy) instrument, dressed with a Turbo Ion Spray source, was utilized to analyze samples. The source parameters were: curtain gas 30 (arbitrary units, a.u.), gas1 40 (a.u.), gas2 55 (a.u.), temperature 500 °C, ion spray voltage 5500 V, declustering potential 200 (a.u), and entrance potential 11 (a.u.). The detector was used in MRM mode and the transitions for each compound were: 446 > 418 m/z and 446 > 401 m/z for CL27C (collision energy 29, collision exit potential 26 and 28, respectively); 432 > 387 m/z and 432 > 404 m/z for CL27e (collision energy 30 and 28, collision exit potential 26 and 27, respectively).

[5] = In vitro plasma stability; format: in vitro ADME, mouse
Description: as §1
Supplementary Table 1. In vitro plasma half-life (t1/2), (mouse plasma).
Values are the mean of at least triplicate determination in a single experiment.

[6] = aerosolized 2 mg/ml CL27c, 1 h from exposure
[7] = aerosolized 2 mg/ml CL27c, 3 h from exposure
[8] = aerosolized 2 mg/ml CL27c, 6 h from exposure

SMILES | activity in PI3K enzymatic assay [1] | Cmax ([3]; CL27c I.V. 10 mg/kg) [mg/L] | AUClast ([3]; CL27c I.V. 10 mg/kg) [mg·h/L] | AUCtot ([3]; CL27c I.V. 10 mg/kg) [mg·h/L] | CL (apparent total body clearance) ([3]; CL27c I.V. 10 mg/kg) [mL/min/kg] | F (bioavailability) ([3]; CL27c I.V. 10 mg/kg) [%] | Tmax ([3]; CL27c I.V. 10 mg/kg) [min] | Vss ([3]; CL27c I.V. 10 mg/kg) [L/kg] | Vz ([3]; CL27c I.V. 10 mg/kg) [L/kg] | t½ (elimination half-life) ([3]; CL27c I.V. 10 mg/kg) [min] | Cmax ([3]; CL27c P.O. 50 mg/kg) [mg/L] | AUClast ([3]; CL27c P.O. 50 mg/kg) [mg·h/L] | AUCtot ([3]; CL27c P.O. 50 mg/kg) [mg·h/L] | F (bioavailability) ([3]; CL27c P.O. 50 mg/kg) [%] | Tmax ([3]; CL27c P.O. 50 mg/kg) [min] | t½ (elimination half-life) ([3]; CL27c P.O. 50 mg/kg) [min] | Lung concentration [4, 6] [ng/g] | Plasma concentration [4, 6] [ng/mL] | Lung concentration [4, 7] [ng/g] | Lung concentration [4, 8] [ng/g] | other results
COC(=O)c1cccc(Cn2cc(-c3cccc4c(=O)cc(N5CCOCC5)[nH]c34)nn2)c1 [CL27c] | inactive | 0.93 | 0.87 | 0.87 | 191 | 100 | 4.8 | 13.55 | 10.75 | 39 | 0.22 | 0.15 | 0.39 | 3.40 | 30 | 63 | 169.2 ± 17.7 | 1.2 ± 0.1 | 34.2 ± 5.2 | 41.6 ± 6.5 | chemotaxis of BMDM [2]: significantly reduce CXCL12- and C5a-induced chemotaxis; Lung concentration ([4]; aerosolized 0.2 mg/ml CL27c, 1 h from exposure): 32.6 ± 5.1 ng/g; Lung concentration ([4]; aerosolized 0.2 mg/ml CL27c, 3 h from exposure): 10.9 ± 0.5 ng/g; Lung concentration ([4]; aerosolized 0.2 mg/ml CL27c, 6 h from exposure): 10.9 ± 1.8 ng/g; detectability in plasma after inhalation [4]: generally undetectable; Concentration in mouse plasma ([5]; time point 0 min): 113.2 ± 12.8 ng/mL; Concentration in mouse plasma ([5]; time point 30 min): 6.2 ± 2.8 ng/mL
O=C(O)c1cccc(Cn2cc(-c3cccc4c(=O)cc(N5CCOCC5)[nH]c34)nn2)c1 [CL27e] | potent pan-class I PI3K inhibitor, acting at nanomolar concentration | 1.90 | 0.98 | 1.05 | 191 | 91 | 4.8 | 13.55 | 10.75 | 75 | 0.29 | 0.26 | 0.28 | 4.80 | 30 | 25.8 | 4.5 ± 1.0 | 1.34 ± 0.62 | 0.1 ± 0.1 | 0.5 ± 0.2 | peak plasma concentration relative to CL27c ([3]; 5 min after i.v. administration of CL27c): twice more abundant than CL27c; Plasma concentration [4, 7]: <1 ng/mL; Plasma concentration [4, 8]: <1 ng/mL; detectability in plasma after inhalation [4]: generally undetectable; Concentration in mouse plasma ([5]; time point 0 min): 45.3 ± 14.1 ng/mL; Concentration in mouse plasma ([5]; time point 30 min): 43.6 ± 7.4 ng/mL
